Data published in patent US9040713B2, “Methods of managing blood sugar levels and compositions related thereto” (EMORY UNIVERSITY, priority 2010, dated 2015).

Biological target: IR (Mus musculus, UniProt P15208)
Assay: IR phosphorylation and downstream signaling in mouse tissues
Assay type: in vivo
Details: for IR and ERK phosphorylations in liver and muscle: 5 mg/kg oral, 1 and 2 h
Protocol: (A) DDN reduces blood glucose in C57BL/6J mice. […] Blood glucose was monitored before and after dosing at various time points as indicated (*: P<0.05, **: P<0.01; ***: P<0.001, n=10-13, Two-way ANOVA vs vehicle). (B) DDN provokes IR phosphorylation and its downstream signaling in C57BL/6J mice. Three month-old C57BL/6J mice were starved for 12 h and then orally administrated with vehicle (0.5% methylcellulose), DDN (20 mg/kg) or 2NH2-NQ (20 mg/kg). Cell lysates were prepared from liver and muscle tissues collected at 3, 4, and 5 h after drug administration and analyzed by immunoprecipitation and immunoblotting. (C) DDN quickly activates IR phosphorylation and its downstream signaling. Three-month-old C57BL/6J mice were starved for 12 h and then injected with vehicle, 5 mg/kg DDN or 5 mg/kg 2NH2-NQ through vena cava. After 5 min, the liver was collected and analyzed by immunobloting using specific antibodies.
Three-month-old mice were starved for 12 h and then orally administrated with vehicle (0.5% methylcellulose) or DDN (5 mg/kg). Cell lysates were prepared from liver and muscle tissues collected at 1 and 2 h after drug administration and analyzed by immunoprecipitation and immunoblotting. […] Three-month-old mice were starved for 12 h and then orally administrated with vehicle (0.5% methylcellulose) or DDN (5 mg/kg). Cell lysates were prepared from liver and muscle tissues collected at 1 and 2 h after drug administration and analyzed by immunoprecipitation and immunoblotting. (C) Hypoglycemic function of DDN in db/db mice. The animals were starved for 12 h and then orally injected with vehicle (0.5% methylcellulose) or DDN (5 mg/kg). […] Blood glucose was monitored before and after drug administration at 1-hour intervals (*: P<0.05, **: P<0.01, n=5, Two-way ANOVA vs vehicle). (D) DDN improves the glucose tolerance in ob/ob mice. The animals were starved for 12 h and then orally dosed with vehicle (0.5% methylcellulose) or DDN (5 mg/kg). […] A bonus of glucose (2 gm/kg) was injected intraperitoneally 1 hour later. Blood glucose was measured at 30-min intervals (*: P<0.05, **:P<0.01, n=5, Two-way ANOVA vs vehicle control).
(A) 4524-E7 provokes IR phosphorylation in various tissues of mice. Three-month-old C57BL/6J mice were starved for 12 h and then dosed with vehicle (0.5% methylcellulose) or 4524-E7 (20 mg/kg). Cell lysates from liver, muscle, and WAT were prepared at 3, 4, and 5 h after drug administration and analyzed by immunoblotting. (B) Basal and insulin-stimulated hepatic glucose production rates were measured by hyperinsulinemic-euglycemic clamp. […] (C) Hypoglycemic effect of 4524-E7 in C57BL/6J mice. C57BL/6J mice were starved for 12 h and then orally administrated with vehicle (0.5% methylcellulose) or 4524-E7 (5 mg/kg). Blood glucose was monitored at different time points as indicated (n=8, *: P<0.05, two-way ANOVA). (D) Hypoglycemic effect in db/db mice. db/db mice were starved for 12 h and then orally injected with vehicle (0.5% methylcellulose) or 4524-E7 (5 mg/kg). Blood glucose was monitored at different time points as indicated (n=5, *: P<0.05, two-way ANOVA). (E) Glucose tolerance test in ob/ob mice. The mice were starved for 12 hours and then orally administrated with vehicle or 4524-E7 (5 mg/kg). A bonus of glucose (2 gm/kg) was injected intraperitoneally 1 hour later. Blood glucose was then measured at 30 min intervals (n=13, *: P<0.05; **: P<0.01, two-way ANOVA).
After a 12 h fasting, C57BL/6J mice were orally administrated with 20 mg/kg of compound in 0.5% methylcellulose, and sacrificed at 3 h, 4 h and 5 h following compound administration. Fat tissues were dissected quickly and frozen on dry ice. Fat lysates were prepared and analyzed by Western blotting.

Sequence of IR (P15208 28-1372): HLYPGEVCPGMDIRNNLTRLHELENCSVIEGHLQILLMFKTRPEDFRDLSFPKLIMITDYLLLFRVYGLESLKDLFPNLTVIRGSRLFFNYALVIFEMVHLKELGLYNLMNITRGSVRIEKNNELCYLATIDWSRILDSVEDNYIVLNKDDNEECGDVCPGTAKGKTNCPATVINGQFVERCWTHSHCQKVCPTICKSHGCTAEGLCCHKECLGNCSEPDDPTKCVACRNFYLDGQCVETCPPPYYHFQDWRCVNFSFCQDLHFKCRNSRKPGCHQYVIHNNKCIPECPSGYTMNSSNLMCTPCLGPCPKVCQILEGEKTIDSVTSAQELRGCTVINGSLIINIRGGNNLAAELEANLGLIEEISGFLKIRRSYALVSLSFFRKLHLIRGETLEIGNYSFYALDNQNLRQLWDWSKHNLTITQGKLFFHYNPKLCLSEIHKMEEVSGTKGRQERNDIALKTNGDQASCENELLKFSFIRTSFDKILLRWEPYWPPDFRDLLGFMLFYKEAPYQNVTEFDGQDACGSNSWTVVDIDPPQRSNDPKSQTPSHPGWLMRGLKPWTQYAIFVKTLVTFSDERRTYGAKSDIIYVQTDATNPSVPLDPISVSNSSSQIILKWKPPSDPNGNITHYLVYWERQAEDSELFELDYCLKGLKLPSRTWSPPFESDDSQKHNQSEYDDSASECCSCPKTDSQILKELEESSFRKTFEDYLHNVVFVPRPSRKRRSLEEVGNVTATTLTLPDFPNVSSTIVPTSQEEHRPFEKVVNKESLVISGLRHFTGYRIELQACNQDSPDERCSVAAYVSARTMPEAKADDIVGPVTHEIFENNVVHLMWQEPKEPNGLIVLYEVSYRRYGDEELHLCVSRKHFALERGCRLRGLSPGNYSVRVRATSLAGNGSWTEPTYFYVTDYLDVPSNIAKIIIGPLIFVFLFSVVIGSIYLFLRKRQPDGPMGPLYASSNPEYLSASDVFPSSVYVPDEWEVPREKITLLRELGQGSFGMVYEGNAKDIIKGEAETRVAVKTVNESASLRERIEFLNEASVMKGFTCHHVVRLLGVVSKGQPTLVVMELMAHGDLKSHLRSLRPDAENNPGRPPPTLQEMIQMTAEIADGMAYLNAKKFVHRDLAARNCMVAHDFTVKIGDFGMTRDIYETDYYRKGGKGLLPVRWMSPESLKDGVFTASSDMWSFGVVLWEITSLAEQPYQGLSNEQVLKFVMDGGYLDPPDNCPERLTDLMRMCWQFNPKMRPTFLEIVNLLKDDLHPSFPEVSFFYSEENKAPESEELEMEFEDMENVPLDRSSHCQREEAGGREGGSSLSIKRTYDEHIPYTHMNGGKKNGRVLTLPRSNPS

Row | SMILES | IR tyrosine phosphorylation in the liver, muscle and WAT (C57BL/6J mice, 20 mg/kg oral, 3 h after administration) | IR, Akt and ERK activation in liver (C57BL/6J mice, 5 mg/kg through vena cava, after 5 min) | IR and IRS-1 tyrosine phosphorylation in liver and muscle (C57BL/6J mice, 20 mg/kg oral) | time until demonstrable IR activation in liver and muscle (C57BL/6J mice, 20 mg/kg oral gavage) | IR and ERK phosphorylations in liver and muscle (db/db mice) | time until IR activation in liver and muscle (injected into blood stream through vena cava) | IR and ERK phosphorylations in liver and muscle (ob/ob mice)
1 | O=C1c2ccccc2C(=O)C2SC(Nc3ccc(Cl)cc3)=NC12 (stereo not shown) [4524-E7, 2-((4-chlorophenyl)amino)naphtho[2,3-d]thiazole-4,9(3aH,9aH)-dione] | all elevated | – | – | – | – | – | –
2 | CC(=O)Oc1ccc(OC(C)=O)c2c1C(=O)C(Cl)=C(Cl)C2=O [DDN, 5,8-diacetyloxy-2,3-dichloro-1,4-naphthoquinone] | – | quickly activated IR | confirmed IRS-1 tyrosine phosphorylation in both tissues | 3 to 4 h | enhanced IR and ERK phosphorylations | 5 min | enhanced IR and ERK phosphorylations
